Test results reported in US8663643B2, “Combinations of an anti-HER2 antibody-drug conjugate and chemotherapeutic agents, and methods of use” (Genentech, Inc., priority 2008, dated 2014).
Where “and” joins values, the source holds several entries; their conditions need not be identical. Equal entries are not always repeated.

Assays:
[1] = system: MMTV-Her2 Fo5 transgenic mammary tumor; test: MMTV-Her2 Fo5 transgenic mammary tumor in Harlan athymic nude mice; type: in vivo; details: for efficacy vs vehicle by both time to tumor doubling and time to tumor endpoint: ABT-869 15 mg/kg, T-DM1 either 7.5 or 15 mg/kg; for single agent efficacy vs vehicle: FIG. 14, lapatinib 101 mg/kg po bid×21, pertuzumab 40 mg/kg iv qwk×4, B20-4.1 5 mg/kg ip 2×/wk×4, T-DM1 15 mg/kg iv q3wk
Protocol: (§1) The efficacy of the combinations of the invention may be measured in vivo by implanting allografts or xenografts of cancer cells in rodents and treating the tumors with the combinations.
The time to tumor doubling was measured by Kaplan-Meier statistical analysis as 2× Vo. Time to tumor doubling and survival analysis were quantified by Log-rank-p values. Time to progression is measured as the elapsed time for tumor volume to reach 1000 mm^3, or the survival time if 1000 mm^3 tumor volume is not reached.
(§2) Animals suitable for transgenic experiments can be obtained from standard commercial sources. Groups of female CB-17 SCID beige mice (Charles River Laboratory) were implanted with 3 million KPL-4 (Her2 overexpressing) breast cancer cells with matrigel in the mammary fat pad. Groups of female athymic nude mice (Charles River Laboratory or Harlan) were implanted with 2×2 mm3 fragments of MMTV-Her2 Fo5 transgenic breast tumors in the mammary fat pad. Mouse xenografts were dosed at day 0 with drug, drug combination, or vehicle according to the schedule specified for each tumor model. […] Tumor sizes were recorded twice weekly over the course of the study. Mouse body weights were also recorded twice weekly, and the mice were observed regularly. […] Tumor inhibition graphs were plotted using KaleidaGraph, Version 3.6 (Synergy Software; Reading, Pa.). The tumor volume was calculated with formula: Tumor size (mm^3)=[…]
(§3) Tumor incidence (TI) was determined based on the number of measurable tumors remaining in each group at the end of the study. A partial response (PR) was defined as more than 50% but less than 100% reduction in tumor volume, compared with the starting tumor volume, observed for three consecutive measurements. A complete response (CR) was defined as a 100% reduction in tumor volume, compared with the initial tumor volume, observed for three consecutive measurements. Data were analyzed and p-values were determined using the Dunnett's t-test with JMP statistical software, version 5.1.2 (SAS Institute; Cary, N.C.). Individual tumor volumes at end of study and mean tumor volume±SEM values were calculated using JMP statistical software, version 5.1.2. Body weight data were graphed based on the mean percentage of change from initial body weights±SEM.

[2] = system: MMTV-HER2 Fo5 transgenic mammary tumor; test: MMTV-HER2 Fo5 transgenic mammary tumor in CRL nu/nu mice; type: in vivo; details: FIG. 34; T-DM1 10 mg/kg iv q3wk; 5-FU 100 mg/kg po qwk×2; combination T-DM1 5 mg/kg + 5-FU 100 mg/kg; 42 day time point
Protocol: B20-4.1 was dosed on days 0, 3, 7, 10, 14, 17, 21 and 24 (2×/wk×4 for 8 total).
[…] Gemcitabine was dosed on days 0, 3, 6 and 9 (q3d×4).
The efficacy of the combinations of the invention may be measured in vivo by implanting allografts or xenografts of cancer cells in rodents and treating the tumors with the combinations. Variable results are to be expected depending on the cell line, the presence or absence of certain mutations in the tumor cells, the sequence of administration of trastuzumab-MCC-DM1 and chemotherapeutic agent, dosing regimen, and other factors. Subject mice were treated with drug(s) or control (Vehicle) and monitored over several weeks or more to measure the time to tumor doubling, log cell kill, and tumor inhibition (Example 3). FIGS. 10-17 and 34-37 show the efficacy of trastuzumab-MCC-DM1 in combinations with chemotherapeutic agents by xenograft tumor inhibition in mice.
Animals suitable for transgenic experiments can be obtained from standard commercial sources. Groups of female CB-17 SCID beige mice (Charles River Laboratory) were implanted with 3 million KPL-4 (Her2 overexpressing) breast cancer cells with matrigel in the mammary fat pad. Groups of female athymic nude mice (Charles River Laboratory or Harlan) were implanted with 2×2 mm3 fragments of MMTV-Her2 Fo5 transgenic breast tumors in the mammary fat pad. Mouse xenografts were dosed at day 0 with drug, drug combination, or vehicle according to the schedule specified for each tumor model. 5-FU, gemcitabine, carboplatin and B20-4.1 were administered intraperitoneal, pertuzumab was given either intravenously or intraperitoneal as indicated, trastuzumab-MCC-DM1 and docetaxel were administered intravenously, lapatinib, GDC-0941 and ABT-869 were given periorally by gavage. Tumor sizes were recorded twice weekly over the course of the study. Mouse body weights were also recorded twice weekly, and the mice were observed regularly. Tumor volume was measured in two dimensions (length and width) using Ultra Cal IV calipers (Model 54-10-111; Fred V. Fowler Co., Inc.; Newton, Mass.) and analyzed using Excel v.11.2 (Microsoft Corporation; Redmond, Wash.). Tumor inhibition graphs were plotted using KaleidaGraph, Version 3.6 (Synergy Software; Reading, Pa.). The tumor volume was calculated with formula: Tumor size (mm^3)=[…]
Tumor incidence (TI) was determined based on the number of measurable tumors remaining in each group at the end of the study. […] Data were analyzed and p-values were determined using the Dunnett's t-test with JMP statistical software, version 5.1.2 (SAS Institute; Cary, N.C.). Individual tumor volumes at end of study and mean tumor volume±SEM values were calculated using JMP statistical software, version 5.1.2. […]

[3] = system: MDA-MB-361.1 mammary tumor; test: MDA-MB-361.1 mammary tumor xenograft in CRL nu/nu mice; type: in vivo
Protocol: as §1, §3

KPL-4 tumors = test: KPL-4 tumor xenograft in SCID beige mice; type: in vivo; details: for complete responses (CR) / partial responses (PR): FIG. 10
Protocol: Pertuzumab was dosed on days 0, 7, and 14.
Pertuzumab was dosed on days 0, 7, 14, 21 (qwk×4. 5-FU was dosed on days 0, 7 and 14 (qwk×3). B20-4.1 was dosed on days 0, 3, 7, 10, 14, 17, 21 and 24 (2×/wk×8 total).
as §1, §2, §3

[4] = system: phospho-Akt, phospho-ERK, Rb, PRAS40, phospho-histone H3, cyclin B1, PARP, Bcl-XL, caspases 3 and 7; test: biochemical analyses of biomarkers; type: cell-based
[5] = phase I study of GDC-0941 as a single agent; type: in vivo, human; details: 60 mg qd
[6] = FIG. 37 (2), GNE-390 1.0 mg/kg po qd×21
[7] = FIG. 37 (3), GNE-390 2.5 mg/kg po qd×21
[8] = FIG. 16, T-DM1 15 mg/kg iv q3wk×2, 15 mg/kg
[9] = FIG. 17, T-DM1 15 mg/kg iv q3wk×2
[10] = FIG. 36 (5), T-DM1 3 mg/kg iv q3wk
[11] = FIG. 36 (6), T-DM1 10 mg/kg iv q3wk
[12] = FIG. 36 (2), GDC-0941 25 mg/kg po qd×21
[13] = FIG. 36 (3), GDC-0941 50 mg/kg po qd×21
[14] = FIG. 36 (4), GDC-0941 100 mg/kg po qd×21
[15] = pertuzumab 15 mg/kg, days 0, 7, 14

Cc1ccc(F)c(NC(=O)Nc2ccc(-c3cccc4[nH]nc(N)c34)cc2)c1 [ABT-869, 1-(4-(3-amino-1H-indazol-4-yl)phenyl)-3-(2-fluoro-5-methylphenyl)urea, reference compound]
efficacy vs vehicle by time to tumor doubling ([1]; FIG. 15, ABT-869 5 mg/kg po bid×21): not different than vehicle
efficacy vs vehicle by time to endpoint ([1]; FIG. 15, ABT-869 5 mg/kg po bid×21, p<0.01): significantly better than vehicle
efficacy vs vehicle by both time to tumor doubling and time to tumor endpoint ([1]; FIG. 15, p<0.01): significantly better than vehicle

O=c1[nH]cc(F)c(=O)[nH]1 [5-FU, 5-fluoro-1H-pyrimidine-2,4-dione, reference compound]
complete responses (CR) [2]: 0
partial responses (PR) [2]: 0

Cc1c(CN2CCN(C(=O)[C@H](C)O)CC2)sc2c(N3CCOCC3)nc(-c3cnc(N)nc3)nc12 [GNE-390, (S)-1-(4-((2-(2-aminopyrimidin-5-yl)-7-methyl-4-morpholinothieno[3,2-d]pyrimidin-6-yl)methyl)piperazin-1-yl)-2-hydroxypropan-1-one]
complete response (CR) [3, 6]: 0
partial responses (PR) [3, 6]: 0
complete response (CR) [3, 7]: 0
partial responses (PR) [3, 7]: 1

CC(=O)O[C@@]12CO[C@@H]1C[C@H](O)[C@@]1(C)C(=O)[C@H](O)C3=C(C)[C@@H](OC(=O)[C@H](O)[C@@H](NC(=O)OC(C)(C)C)c4ccccc4)C[C@@](O)([C@@H](OC(=O)c4ccccc4)[C@H]21)C3(C)C [docetaxel, (2R,3S)—N-carboxy-3-phenylisoserine, N-tert-butyl ester, 13-ester with 5,20-epoxy-1,2,4,7,10,13-hexahydroxytax-11-en-9-one 4-acetate 2-benzoate, trihydrate, reference compound]
partial responses (PR) ([1]; FIG. 16, docetaxel 30 mg/kg iv qwk×3): 2

T-DM1
single agent efficacy vs vehicle [1]: efficacious as a single agent
efficacy vs vehicle by both time to tumor doubling and time to tumor endpoint ([1]; FIG. 15, p<0.01): significantly better than vehicle
objective responses ([1]; FIG. 16, T-DM1 7.5 mg/kg iv q3wk×2): no objective responses
complete response (CR) [1, 8]: 1 and 2
partial responses (PR) [1, 8]: 6 and 5
complete responses (CR) [1, 9]: 3
partial responses (PR) [1, 9]: 6
complete response (CR) [3, 10]: 1
partial responses (PR) [3, 10]: 1
complete response (CR) [3, 11]: 1
partial responses (PR) [3, 11]: 8
complete responses (CR) [2]: 0
partial responses (PR) [2]: 1
complete responses (CR) (KPL-4 tumors; T-DM1 0.3 mg/kg once on day 0): 0
partial responses (PR) (KPL-4 tumors; T-DM1 0.3 mg/kg once on day 0): 0
complete responses (CR) (KPL-4 tumors; T-DM1 1 mg/kg once on day 0): 0
partial responses (PR) (KPL-4 tumors; T-DM1 1 mg/kg once on day 0): 1
complete responses (CR) (KPL-4 tumors; T-DM1 3 mg/kg once on day 0): 0
partial responses (PR) (KPL-4 tumors; T-DM1 3 mg/kg once on day 0): 7
remaining tumors less than 50 mm^3 with no evidence of viable tumor cells (histology, end of study) (KPL-4 tumors; FIG. 11, T-DM1 5 mg/kg single iv, 5-FU 100 mg/kg qwk×3, pertuzumab 40 mg/kg qwk×4): 8 samples
apoptosis (23 kDa PARP-cleavage fragment, Bcl-XL, activation of caspases 3 and 7) [4]: resulted in apoptosis
phospho-Akt and phospho-ERK [4]: inhibition
levels of the mitotic markers phospho-histone H3 and cyclin B1 ([4]; after treatment): increased levels

CS(=O)(=O)CCNCc1ccc(-c2ccc3ncnc(Nc4ccc(OCc5cccc(F)c5)c(Cl)c4)c3c2)o1 [lapatinib, N-(3-chloro-4-(3-fluorobenzyloxy)phenyl)-6-(5-((2-(methylsulfonyl)ethylamino)methyl)furan-2-yl)quinazolin-4-amine, reference compound]
single agent efficacy vs vehicle [1]: not different from vehicle

CS(=O)(=O)N1CCN(Cc2cc3nc(-c4cccc5[nH]ncc45)nc(N4CCOCC4)c3s2)CC1 [GDC-0941, 4-(2-(1H-indazol-4-yl)-6-((4-(methylsulfonyl)piperazin-1-yl)methyl)thieno[3,2-d]pyrimidin-4-yl)morpholine]
complete response (CR) [3, 12]: 0
partial responses (PR) [3, 12]: 0
complete response (CR) [3, 13]: 0
partial responses (PR) [3, 13]: 1
complete response (CR) [3, 14]: 0
partial responses (PR) [3, 14]: 0
safety of the dose as a single agent [5]: safe as a single agent without any dose limiting toxicities
phospho-Akt and phospho-ERK [4]: inhibition
phosphorylation of Rb and PRAS40 [4]: decreased phosphorylation

pertuzumab: recombinant, humanized monoclonal antibody that inhibits dimerization of HER2 (CAS Reg. No. 380610-27-5) [reference compound]
single agent efficacy vs vehicle [1]: not different from vehicle
complete responses (CR) (KPL-4 tumors; [15]): 0
partial responses (PR) (KPL-4 tumors; [15]): 0
